Key:
[1] = molecular target: T1, CCR4 (Homo sapiens, UniProt P51679); experiment: CEM cell chemotaxis (migration) assay to CCL22 (MDC) in HBSS buffer with 0.1% BSA; type: cell-based; details: CEM cells in HBSS with 0.1% BSA; recombinant human CCL22 0.1 nM; 37° C. 60 minutes
T1 construct: CEM Cells Endogenous Express CCR4; endogenous in cells; host or cells: CEM cells
T1 sequence (P51679 1-360): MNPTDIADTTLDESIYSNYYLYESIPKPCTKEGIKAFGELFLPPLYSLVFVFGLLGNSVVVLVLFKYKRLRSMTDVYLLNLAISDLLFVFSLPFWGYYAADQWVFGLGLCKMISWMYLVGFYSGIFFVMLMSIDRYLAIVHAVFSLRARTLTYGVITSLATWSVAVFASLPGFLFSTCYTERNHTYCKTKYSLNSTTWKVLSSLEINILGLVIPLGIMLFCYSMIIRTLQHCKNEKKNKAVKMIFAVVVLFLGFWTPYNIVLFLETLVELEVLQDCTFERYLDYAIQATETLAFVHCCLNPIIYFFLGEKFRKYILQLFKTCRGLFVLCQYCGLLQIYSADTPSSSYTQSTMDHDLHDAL
Description: CEM Cells Endogenous Express CCR4
A chemotaxis assay can be used to determine the efficacy of potential receptor antagonists at blocking the migration mediated through chemokine receptors, such as CCR4. This assay is routinely performed using the ChemoTX® microchamber system with a 5 μm pore-sized polycarbonate membrane.
HBSS: CEM Cells are collected by centrifugation at 400×g at room temperature, then suspended at 5 million/ml in Hanks' Balanced Salt Solution (HBSS) buffer with 0.1% BSA. The compound being tested is serially diluted from a maximum final concentration of 10 μM (or an equivalent volume of its solvent (DMSO)) and is then added to the cell/buffer mixture. Separately, recombinant human CCL22 (MDC) at its EC50 concentration (0.1 nM) is placed in the lower wells of the ChemoTX® plate. The 5-μm (pore size) polycarbonate membrane was placed onto the plate, and 20 μL of the cell/compound mixture is transferred onto each well of the membrane. The plates are incubated at 37° C. for 60 minutes, after which the polycarbonate membranes are removed and 5 μl of the DNA-intercalating dye CyQUANT (Invitrogen, Carlsbad, CA) is added to the lower wells. The amount of fluorescence, corresponding to the number of migrated cells, is measured using a Spectrafluor Plus plate reader (TECAN, San Jose, CA).

[2] = molecular target: T1, CCR4; experiment: CEM cell chemotaxis (migration) assay to CCL22 (MDC) in 100% Fetal Bovine Serum (FBS); type: cell-based; details: CEM cells in 100% FBS with 1% HEPEs; recombinant human CCL22 0.1 nM; 37° C. 60 minutes
Outline: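 Endogenously CCR4-expressing CEM cells in 100% FBS with 1% HEPES were preincubated with serially diluted compound (top final 10 μM) and allowed to migrate through 5 μm polycarbonate membranes toward 0.1 nM human CCL22 (EC50) for 60 min at 37 °C. Migrated cells were quantified by CyQUANT fluorescence.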

IC50 [1]	IC50 [2]	SMILES
> 1000 nM	< 100 nM	C[C@@H](Nc1nc(N2CC[C@H](NC(=O)[C@@H]3CCC(=O)N3)[C@@H](O)C2)ncc1Cl)c1ccc(Cl)cc1Cl [Example 1.254]
> 1000 nM	> 1000 nM	C[C@@H](Nc1nc(N2CCN(C(=O)[C@H]3CCC(=O)N3)CC2)ncc1Cl)c1ccccn1 [Example 1.256]
< 100 nM	< 100 nM	Cc1nc(N2CCN(C(=O)[C@H]3CCC(=O)N3)CC2)nc(N[C@H](C)c2cc(F)c(Cl)cc2Cl)c1Cl [Example 1.258]

The remaining lines, values behind:

SMILES	IC50 [1]	IC50 [2]
C[C@@H](Nc1nc(N2CCN(C(=O)[C@H]3CCCN3C3CC(C)(C(=O)O)C3)CC2)ncc1Cl)c1ccc(Cl)cc1Cl (stereo partly shown) [Example 1.152]	100 to 1000 nM	> 1000 nM
C[C@@H](Nc1nc(N2CCN(C3CN[C@H](C(=O)O)C3)CC2)ncc1Cl)c1ccc(Cl)cc1Cl (stereo partly shown) [Example 1.153]	> 1000 nM	> 1000 nM
C[C@@H](Nc1nc(N2CCN(C(=O)[C@@H]3NC(=O)[C@@H]4C[C@@H]43)CC2)ncc1Cl)c1ccc(Cl)cc1Cl [Example 1.251]	< 100 nM	< 100 nM
C[C@H](Nc1nc(N2CCN(C(=O)[C@H]3CCC(=O)N3)CC2)ncc1Cl)c1ccc(Cl)cc1Cl [Example 1.252]	> 1000 nM	> 1000 nM
C[C@H](Nc1nc(N2CCN(C(=O)[C@@H]3CCC(=O)N3)CC2)ncc1Cl)c1ccc(Cl)cc1Cl [Example 1.253]	> 1000 nM	> 1000 nM

From patent US20230382894A1, “CCR4 ANTAGONISTS” (CHEMOCENTRYX, INC., priority 2022, published 2023)
